Here are results for ten compounds from PMC12481576, “Barbituric Acid Derivatives as Covalent Inhibitors of Leishmania braziliensis Dihydroorotate Dehydrogenase” (Journal of Medicinal Chemistry, 2025).

In general, CC50 refers to the concentration giving 50% cytotoxicity. As a reminder, the IC50 is the point on the concentration scale where inhibition reaches its midpoint. A high value points to lower potency. By inhibition is commonly meant the relative decrease from the control value, in per cent. The EC50 is the concentration that produces a half-maximal response. High values mean weaker potency, low ones greater potency.

Read-outs that look alike come from different tables or passages of the source. A value given as a limit tells only on which side of the number the result lay.

One data set concerns the target T1, HsDHODH (Homo sapiens, UniProt Q02127).
T1 construct: made in house
In words: Selectivity assay: HsDHODH single-dose inhibition (DCIP reduction). It is filed as biochemical. On the procedure: […]. This finding highlights the potential of barbituric acid derivatives as selective inhibitors of LbDHODH.
Human DHODH expression and purification were conducted following a protocol previously established in our laboratory. The purification was carried out by affinity chromatography on a Ni-NTA Agarose column (Qiagen[…] Cat. No. 30210). […] The reaction was performed in triplicate, initiated by adding 195 μL of reaction buffer to 5 μL of HsDHODH protein solution for a final concentration of 20 nM enzyme. As a blank, 195 μL of reaction buffer was added to 5 μL of Buffer A. The reaction was monitored at 610 nm every 3 s over 60 s. As a control, 5 μL of enzyme was added to 195 μL of reaction medium without compound. Enzymatic velocity was calculated, and the percentage of relative enzymatic activity was determined relative to the control.

The nature of data set [1]: Cell viability / cytotoxicity assay (PrestoBlue, 72 h). The data set is classed as cell-based. The settings on record: human; THP-1 cell line, 72 h, max 200 μM; read-out: CC50. On the procedure:
THP-1 cells (American Type Cell Collection, #TIB-202) were acquired in 2019 and stored frozen in liquid nitrogen. The cells were then maintained in RPMI 1640 (Thermo Fisher Scientific, #S31800–022) at 37 °C in a 5% CO2 atmosphere and routinely tested for Mycoplasma contamination by PCR using the primers 5′-[…] and 5′-[…]. To test the toxicity of compounds, 5000 cells were added to 96-well plates with a final volume of 80 μL centrifuged at 400g for 2 min and incubated with 150 ng/mL of phorbol myristate acetate (Merck, #P8139) for 48 h. The medium was replaced, and after 24 h, the compounds were added and tested at decreasing concentrations starting from 200 μM (10 μL/well). After 72 h of incubation, 10 μL of PrestoBlue Cell Viability Reagent (Thermo Fisher Scientific, #A13262) was added per well. After adding the reagent, the cells were incubated for 2 h at 37 °C in a 5% CO2 atmosphere, and fluorescence readings were performed using the SpectraMax M3 reader (excitation at 560 nm and emission at 590 nm).

The next data set concerns the target LbDHODH (Leishmania braziliensis, UniProt E9AI53). In words: biochemical. The settings on record: for IC50: LbDHODH. On the procedure:
To assess the ability of compounds 2a–2i to inhibit LbDHODH via covalent bond formation with Cys^131, we initially screened them at a concentration of 100 μM under two conditions: with and without a 4-h preincubation with the enzyme.
The experiments were performed in a 96-well microplate reader (SpectraMax Plus 384, Molecular Devices, USA), containing the […] of the buffer 60 mM DCIP, 50 mM Tris pH 8.15, 150 mM KCl, 0.1% Triton X-100, 50 μM DHO and 10 μM of LbDHODH at 165 nM. The reaction was monitored every 3 s at 610 nm over a period of 60 s, in triplicate, for the control and each concentration of the inhibitor. All assays were performed without incubation (0h) and with 4-h preincubation of the inhibitor with LbDHODH, using 5% DMSO (v/v) as control. […]. […] The resulting kobs values were plotted as a function of inhibitor concentration, and the data in the initial linear region was fit to determine the slope, which is kinact/KI. All regressions were performed with GraphPad Prism 9.

In data set [2] the test system is Leishmania braziliensis promastigotes. Description: Leishmanicidal activity, promastigote growth (SYBR Green, 72 h). The data set is classed as cell-based, Leishmania (V.) braziliensis (MHOM/BR/1975/M2904). The settings on record: Leishmania braziliensis, L. braziliensis promastigotes, max 200 μM. On the procedure: The cultures were adjusted to 4 × 10^6 parasites per mL, and 50 μL of each culture was added on a test plate with 384 wells (Corning, #CLS3658), along with the controls and compounds to be tested. Previously diluted compounds in DMSO were added to plates in decreasing concentrations, with a maximum concentration of 200 μM. Parasites were exposed to a final concentration of DMSO in various dilutes (final = 0.5%), and the culture medium was used as the control for the experiment. […] After adding the lysis buffer, the plates were incubated in the dark for 2 h with gentle shaking. The readings were done using a SpectraMax M3 reader (excitation at 485 nm and emission at 535 nm).

Setting [3] is: read-out: Single dose (0h) % activity.
[4] abbreviates: read-out: Single dose (4h) % activity.
Setting [5] is: 0 h, pH 8.15, read-out: LbDHODH Activity±SD (%).
Where [6] appears, read: 4 h, pH 8.15, read-out: LbDHODH Activity±SD (%).
Setting [7] is: IC50 0 h, without preincubation.
[8] abbreviates: LbDHODH remaining activity, compound 100 μM, 4-h preincubation, read-out: single dose (4 h) % activity.
The mark [9] stands for this setting: LbDHODH remaining activity, compound 100 μM, without preincubation, read-out: single dose (0 h) % activity.

T1 sequence (Q02127 whole entry): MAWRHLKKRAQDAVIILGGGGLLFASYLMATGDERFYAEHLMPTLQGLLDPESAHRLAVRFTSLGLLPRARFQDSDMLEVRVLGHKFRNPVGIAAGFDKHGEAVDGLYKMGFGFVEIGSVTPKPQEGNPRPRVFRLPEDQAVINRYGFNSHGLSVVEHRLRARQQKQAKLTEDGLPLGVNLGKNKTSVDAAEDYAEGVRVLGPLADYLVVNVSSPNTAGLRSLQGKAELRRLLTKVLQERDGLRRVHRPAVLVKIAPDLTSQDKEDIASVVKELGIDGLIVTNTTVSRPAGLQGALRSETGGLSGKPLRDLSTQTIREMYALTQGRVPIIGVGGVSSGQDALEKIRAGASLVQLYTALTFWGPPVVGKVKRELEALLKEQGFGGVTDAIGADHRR
Chain of LbDHODH (E9AI53 entry or part of it): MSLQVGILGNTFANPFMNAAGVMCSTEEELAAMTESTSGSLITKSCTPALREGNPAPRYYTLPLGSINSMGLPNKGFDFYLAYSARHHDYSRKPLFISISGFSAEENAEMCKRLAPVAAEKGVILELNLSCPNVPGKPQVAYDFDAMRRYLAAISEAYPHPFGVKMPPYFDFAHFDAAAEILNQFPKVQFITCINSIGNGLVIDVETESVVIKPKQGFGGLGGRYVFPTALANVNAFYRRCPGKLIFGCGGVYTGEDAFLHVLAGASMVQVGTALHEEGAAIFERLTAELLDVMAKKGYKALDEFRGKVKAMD

On to `O=C1NC(=O)C(=Cc2ccc(C(=O)O)cc2)C(=O)N1` [2b, 4-((2,4,6-Trioxotetrahydropyrimidin-5(2H)-ylidene)methyl)benzoic Acid], for which, at HsDHODH (setting [3]), the activity at 100 µM stood at 105 ± 12%. Moreover, at HsDHODH (setting [4]), the activity at 100 µM stood at 99 ± 10%. In data set [1], the 50% cytotoxic concentration (CC50) at 72 h was above 200 µM. For the same compound, at LbDHODH (setting [5]), the activity at 0.195312 µM amounted to 98 ± 18%, the activity at 0.390625 µM is 96 ± 9%, the activity at 0.78125 µM was 100 ± 8% and the activity at 1.5625 µM came to 96 ± 7%. Also, on LbDHODH (setting [5]), the activity at 3.125 µM came to 97 ± 7%, the activity at 6.25 µM turned out to be 94 ± 18%, the activity at 12.5 µM came out at 97 ± 10% and the activity at 25 µM stood at 72 ± 10%. Also, on LbDHODH (setting [5]), the activity at 50 µM worked out at 72 ± 6%, the activity at 100 µM was determined as 65 ± 5%, the activity at 200 µM came out at 60 ± 22% and the activity at 400 µM is 86 ± 18%. Moreover, at LbDHODH (setting [6]), the activity at 0.195312 µM came out at 94 ± 11%, the activity at 0.390625 µM stood at 99 ± 11%, the activity at 0.78125 µM was found to be 91 ± 20% and the activity at 1.5625 µM was determined as 80 ± 8%. At LbDHODH (setting [6]), the activity at 3.125 µM stood at 90 ± 6%, the activity at 6.25 µM stood at 83 ± 13%, the activity at 12.5 µM worked out at 65 ± 4% and the activity at 25 µM worked out at 66 ± 4%. On LbDHODH (setting [6]), the activity at 50 µM came out at 29 ± 5%, the activity at 100 µM stood at 15 ± 1%, the activity at 200 µM was 13 ± 6% and the activity at 400 µM was 7 ± 2%. This compound gave an IC50 at LbDHODH (setting [7]) above 100 µM. For the same compound, it took 22 ± 1 µM to reach half-maximal inhibition against LbDHODH (IC50 4 h, 4-h preincubation) (IC50). Besides, the activity at 100 µM at LbDHODH (setting [3]) turned out to be 70 ± 10%. Moreover, on LbDHODH (setting [4]), the activity at 100 µM stood at 10 ± 2%. The inhibition at 100 µM on LbDHODH (read-out: enzyme inhibition) is 90 to 93%. The same compound showed an EC50 in data set [2] above 200 µM.
In the case of `O=C1NC(=O)C(Cc2ccccc2)C(=O)N1` [3a, 5-Benzylpyrimidine-2,4,6(1H,3H,5H)-trione], the activity at 100 µM on HsDHODH (setting [3]) is 109 ± 12%; on HsDHODH (setting [4]), 97 ± 9%; at LbDHODH (setting [3]) it was 90 ± 10%; at LbDHODH (setting [4]), 70 ± 8%. For the same compound, the CC50 at 72 h in data set [1] was above 200 µM. The IC50 is above 100 µM on LbDHODH (setting [7]) and above 100 µM at LbDHODH (IC50 4 h, 4-h preincubation). Further, the EC50 in data set [2] is above 200 µM.
For `O=C1NC(=O)C(Cc2ccc(C(=O)O)cc2)C(=O)N1` [3b, 4-((2,4,6-Trioxohexahydropyrimidin-5-yl)methyl)benzoic Acid], the activity at 100 µM is 92 ± 10% on HsDHODH (setting [3]), 83 ± 8% at HsDHODH (setting [4]), 109 ± 3% on LbDHODH (setting [3]) and 69 ± 2% at LbDHODH (setting [4]). Moreover, the CC50 at 72 h in data set [1] is above 200 µM. In addition, the IC50 against LbDHODH (setting [7]) was above 100 µM; on LbDHODH (IC50 4 h, 4-h preincubation) it was above 100 µM. Also, the concentration giving a half-maximal response (EC50) in data set [2] is above 200 µM.
Regarding `COc1cc(CC2C(=O)NC(=O)NC2=O)ccc1O` [3c, 5-(4-Hydroxy-3-methoxybenzyl)pyrimidine-2,4,6(1H,3H,5H)-trione], the activity at 100 µM at HsDHODH (setting [3]) was 87 ± 10%; at HsDHODH (setting [4]), 79 ± 8%; at LbDHODH (setting [3]) it was 98 ± 7%; at LbDHODH (setting [4]) it was 60 ± 10%. Besides, the cytotoxic concentration (CC50) at 72 h in data set [1] is above 200 µM. Further, the concentration for half-maximal inhibition (IC50) at LbDHODH (setting [7]) is above 100 µM; against LbDHODH (IC50 4 h, 4-h preincubation), above 100 µM. The same compound showed an EC50 in data set [2] above 200 µM.
`O=C1NC(=O)C(Cc2ccc(N3CCOCC3)cc2[N+](=O)[O-])C(=O)N1` [3e, 5-(4-Morpholino-2-nitrobenzyl)pyrimidine-2,4,6(1H,3H,5H)-trione]: the activity at 100 µM was determined as 105 ± 12% at HsDHODH (setting [3]), 89 ± 9% on HsDHODH (setting [4]), 90 ± 10% at LbDHODH (setting [3]) and 80 ± 20% on LbDHODH (setting [4]). Further, the CC50 at 72 h in data set [1] was above 200 µM. Besides, the IC50 on LbDHODH (setting [7]) is above 100 µM; on LbDHODH (IC50 4 h, 4-h preincubation) it was above 100 µM. The compound also showed an EC50 in data set [2] of 23 ± 16 µM.
Turning to `O=C1NC(=O)C(Cc2ccc(-c3ccccc3)cc2)C(=O)N1` [3f, 5-([1,1′-Biphenyl]-4-ylmethyl)pyrimidine-2,4,6(1H,3H,5H)-trione], the activity at 100 µM at HsDHODH (setting [3]) was found to be 93 ± 11%; at HsDHODH (setting [4]) it was 102 ± 10%; at LbDHODH (setting [8]), 34 ± 6%; on LbDHODH (setting [9]), 83 ± 0.2%. Besides, in data set [1], the CC50 at 72 h was above 200 µM. For the same compound, the “single dose (0 h) % activity” value on LbDHODH (LbDHODH remaining activity, compound 100 μM, without preincubation, 100 µM) is given as 82.6 ±0.2%. The compound also yielded an EC50 in data set [2] above 200 µM.
For `O=C1NC(=O)C(Cc2cccc(O)c2)C(=O)N1` [3g, 5-(3-Hydroxybenzyl)pyrimidine-2,4,6(1H,3H,5H)-trione], the activity at 100 µM at HsDHODH (setting [3]) stood at 87 ± 10%; at HsDHODH (setting [4]), 86 ± 10%; on LbDHODH (setting [8]), 36 ± 3%; on LbDHODH (setting [9]), 93 ± 5%. Further, the half-maximal cytotoxic concentration (CC50) at 72 h in data set [1] was above 200 µM. Moreover, the EC50 in data set [2] is above 200 µM.
Take `O=C1NC(=O)C(Cc2ccc(-c3ccccc3F)[nH]2)C(=O)N1` [3h, 5-((5-(2-Fluorophenyl)-1H-pyrrol-2-yl)methyl)pyrimidine-2,4,6(1H,3H,5H)-trione]: the activity at 100 µM came out at 89 ± 10% on HsDHODH (setting [3]), 91 ± 9% at HsDHODH (setting [4]), 80 ± 10% on LbDHODH (setting [3]) and 80 ± 20% at LbDHODH (setting [4]). In addition, in data set [1], the CC50 at 72 h is above 200 µM. Also, the IC50 against LbDHODH (setting [7]) is above 100 µM; on LbDHODH (IC50 4 h, 4-h preincubation), above 100 µM. The same compound gave an EC50 in data set [2] above 200 µM.
On to `O=C1NC(=O)C(CC=Cc2ccccc2)C(=O)N1` [3i, 5-Cinnamylpyrimidine-2,4,6(1H,3H,5H)-trione], for which the activity at 100 µM on HsDHODH (setting [3]) amounted to 102 ± 12%; at HsDHODH (setting [4]), 98 ± 10%; on LbDHODH (setting [3]), 103 ± 3%; at LbDHODH (setting [4]) it was 21 ± 7%. Further, in data set [1], the CC50 at 72 h was 193 ± 67 µM. Also, in data set [2], the EC50 was above 200 µM.
Take `O=C1NC(=O)C(CCCc2ccccc2)C(=O)N1` [3ii, 5-(3-Phenylpropyl)pyrimidine-2,4,6(1H,3H,5H)-trione]: the activity at 100 µM was 99 ± 11% on HsDHODH (setting [3]), 96 ± 9% at HsDHODH (setting [4]), 21 ± 7% on LbDHODH (setting [8]) and 98 ± 5% at LbDHODH (setting [9]). Moreover, in data set [1], the CC50 at 72 h is above 200 µM. A half-maximal effect in data set [2] (EC50) was put at 23 ± 6 µM.
